Data on 49 molecules can be found in patent US20100204219A1, “AROMATIC 1,4-DI-CARBOXYLAMIDES AND THEIR USE” (priority 2006, published 2010).

For this test, the target named is T1, βCat-BCL9 (beta-Catenin/BCL9-BCL9L interaction) (Homo sapiens, UniProt P35222).
T1 sequence (P35222 1-781): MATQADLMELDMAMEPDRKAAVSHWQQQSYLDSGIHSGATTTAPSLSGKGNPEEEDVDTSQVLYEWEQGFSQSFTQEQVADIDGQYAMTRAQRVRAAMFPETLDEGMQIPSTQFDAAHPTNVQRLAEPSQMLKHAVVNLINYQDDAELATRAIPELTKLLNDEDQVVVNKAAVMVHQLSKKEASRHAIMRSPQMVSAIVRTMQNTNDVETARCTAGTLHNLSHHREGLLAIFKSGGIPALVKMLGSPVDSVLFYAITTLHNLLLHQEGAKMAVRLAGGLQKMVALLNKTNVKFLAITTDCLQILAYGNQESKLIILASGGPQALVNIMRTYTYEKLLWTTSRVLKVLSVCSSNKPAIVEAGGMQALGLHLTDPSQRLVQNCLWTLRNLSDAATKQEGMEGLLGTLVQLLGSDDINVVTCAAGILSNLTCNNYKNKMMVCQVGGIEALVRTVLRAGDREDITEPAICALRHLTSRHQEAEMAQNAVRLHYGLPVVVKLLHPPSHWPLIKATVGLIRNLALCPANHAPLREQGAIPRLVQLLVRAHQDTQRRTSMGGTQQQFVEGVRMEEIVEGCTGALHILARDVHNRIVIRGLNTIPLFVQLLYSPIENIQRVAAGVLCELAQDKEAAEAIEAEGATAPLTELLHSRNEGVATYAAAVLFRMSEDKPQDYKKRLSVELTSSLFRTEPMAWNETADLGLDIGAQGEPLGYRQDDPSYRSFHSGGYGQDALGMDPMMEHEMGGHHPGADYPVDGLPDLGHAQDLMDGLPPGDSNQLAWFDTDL
In words: ELISA based protein-protein interaction assay, βCat-BCL9. The conditions noted are these: Example 1. In kind it is binding. An excerpt:
cDNAs including the binding domains of Lgs and beta-Catenin were fused down-stream of glutathione-S-transferase (GST) cDNA in pGEX-4T inducible bacterial expression vector (Pharmacia). Similar recombinant DNA constructs were generated in the pET-32a(+) vector (Novagen) for expression of fusion protein containing the Thioredoxine-6His tag at their N-terminus. Fusion proteins were produced in BL21 bacteria (e.g. Stratagene) following manufacturer's recommendation.
To isolate the produced fusions protein, bacteria were ground in aluminum oxide (Sigma, A2039) and the resulting powder extracted in lysis buffer (140 mM NaCl, 10 mM Na2HPO4, 1.8 mM KH2PO4, 2.7 mM KCl, 1 mM EDTA, 1% Triton-X-100, 1 mM DTT and protease inhibitors) under rotation for 30 minutes. Supernatants were cleared by centrifugation then filtered on a 0.45 μm membrane before protein purification. For GST tagged protein, lysate were processed on glutathione agarose beads following manufacturer's recommendation (Amersham Pharmacia) and purified proteins eluted in 50 mM Tris-Cl, 10 mM reduced glutathione pH8.0. For thioredoxine-6His fusions, tagged proteins were purified from the lysate on a nickel chelating column (e.g. Hitrap chelating, G.E. Healthcare) using an HPLC system (e.g. Akta Prime, G.E. Healthcare) and eluted under increasing concentration of imidazole. The purified proteins solution was dialyzed against PBS before use. The quality of the preparations was checked by SDS-gel electrophoresis by standard methods well known by persons skilled in the art.
Compound preparation: Compounds can be prepared as 25 mM stock in DMSO and diluted in DMSO to reach final test concentrations of up to 100 μM. Final DMSO concentration in the assay is 5%.
100 μl of GST fusion protein (e.g. GST-βCatenin) diluted to the appropriate concentration in phosphate buffer saline are added per well to a 96 well plate with high protein binding capacity (e.g. Nunc Maxisorp) and placed at 4° C. overnight. The following day the liquid in the wells is discarded and 150 μl 3% bovine serum albumin (BSA) in PBS are added to each well and incubated at room temperature for 2 hours under moderate shaking. This solution is then discarded and each well washed twice with 200 μl PBS. After carefully discarding the second wash, a mixture of 5 μl compound dilution and 95 μl 6His fusion protein (e.g. 6His-Bcl9) diluted to the appropriate concentration in PBS is added to each well. The plate is then incubated for 1 hour at room temperature under moderate shaking. This protein solution is then discarded and the wells washed 3 times with 200 μl 0.1% Tween-20 solution in PBS. After carefully discarding the final wash, 100 μl of anti 6His antibody conjugated to the horse-radish peroxidase (e.g. Roche antibody 11965085001) at the appropriate dilution in 1% BSA in PBS is added to the wells and the plate incubated for 1 hour at room temperature under moderate shaking. This solution is then discarded and the wells washed 3 times with 200 μl 0.1% Tween-20 solution in PBS. After carefully discarding the final wash, 100 μl of HRP substrate […] (TMB) in solution (e.g. Sigma T0440) is added to the wells and the plate incubated up to 30 minutes in the dark at room temperature. The reaction is stopped by addition of 100 μl of 2N HCl to each well and the optical density is measured at 450 nm and 630 nm.
(ELISA stands for enzyme-linked immunosorbent assay.)

A value given as a limit tells only on which side of the number the result lay.

In the case of `CCCCc1ccc(NC(=O)c2ccc(C(=O)Nc3ccc(CCCC)cc3)nc2)cc1` [TGC0011433], the IC50 (in general, the concentration at which inhibition is half-maximal) was more than 50 µM.
The same measure for `O=C(NCc1ccc(Cl)cc1)c1ccc(C(=O)NCc2ccc(Cl)cc2)nc1` [TGC0011339]: more than 10 µM.
Turning to `COc1cc(NC(=O)c2ccc(C(=O)Nc3ccc(OC)c(OC)c3)nc2)cc(OC)c1` [TGC0012408], the IC50 is 7 µM.
`O=C(c1ccc(C(=O)N2CCC(Cc3ccccc3)CC2)nc1)N1CCC(Cc2ccccc2)CC1` [TGC0011429] showed an IC50 of more than 25 µM.
Then `O=C(Nc1ccc(-c2cnc(-c3ccc(NC(=O)c4ccco4)cc3)nc2)cc1)c1ccco1` [TGC0011531], with more than 10 µM; and `O=C(NCCc1ccccc1OC(F)(F)F)c1ccc(C(=O)NCCc2ccccc2OC(F)(F)F)nc1` [TGC0011454], with more than 100 µM; and `CC(C)NC(=O)c1ccc(C(=O)NC(C)C)nc1` [TGC0011283], with more than 100 µM.
Then `CC(=O)Nc1ccc(NC(=O)c2ccc(C(=O)Nc3ccc(NC(C)=O)cc3)cc2)cc1` [TGC0012292], with more than 50 µM; and `CC(=O)Nc1ccc(-c2cnc(-c3ccc(NC(C)=O)cc3)nc2)cc1` [TGC0011524], with more than 100 µM; and `O=C(COc1ccc(Br)cc1)Nc1ccc(-c2cnc(-c3ccc(NC(=O)COc4ccc(Br)cc4)cc3)nc2)cc1` [TGC0011565], with more than 100 µM.
In turn, `COc1ccc(NC(=O)c2ccc(C(=O)Nc3ccc(NC(C)=O)cc3)cn2)cc1` [TGC0012409] showed an IC50 of 5 µM. This counts as single-digit micromolar.
The same measure for `COc1ccc(CCNC(=O)c2ccc(C(=O)NCCc3ccc(OC)c(Cl)c3)nc2)cc1Cl` [TGC0011593]: more than 100 µM; for `CCC(C)NC(=O)c1ccc(C(=O)NC(C)CC)nc1` (stereo not shown) [TGC0011437]: more than 50 µM; for `O=C(Nc1ccc(-c2cnc(-c3ccc(NC(=O)c4ccc(Br)cc4)cc3)nc2)cc1)c1ccc(Br)cc1` [TGC0011533]: more than 100 µM.
`O=C(Nc1ccc(F)c(Cl)c1)c1ccc(C(=O)Nc2ccc(F)c(Cl)c2)nc1` [TGC0011287] had an IC50 of more than 100 µM.
`O=C(Nc1ccc(-c2cnc(-c3ccc(NC(=O)C(F)(F)F)cc3)nc2)cc1)C(F)(F)F` [TGC0011526] came in with an IC50 of more than 100 µM.
The same measure for `N#Cc1cccc(NC(=O)c2ccc(C(=O)Nc3cccc(C#N)c3)cc2)c1` [TGC0012301]: more than 50 µM.
`O=C(NCc1ccccc1)c1ccc(C(=O)NCc2ccccc2)nc1` [TGC0011284] yielded a half-inhibitory concentration (IC50) of more than 100 µM.
The same measure for `CC(CCc1ccccc1)NC(=O)c1ccc(C(=O)NC(C)CCc2ccccc2)nc1` (stereo not shown) [TGC0011436]: more than 10 µM; for `O=C(Nc1cccnc1O)c1ccc(C(=O)Nc2cccnc2O)nc1` [TGC0012261]: more than 100 µM.
`O=C(NCCc1ccc2c(c1)OCO2)c1ccc(C(=O)NCCc2ccc3c(c2)OCO3)nc1` [TGC0011448] displayed a concentration for half-maximal inhibition (IC50) of more than 10 µM.
The same measure for `COc1ccc(CNC(=O)c2ccc(C(=O)NCc3ccc(OC)cc3)nc2)cc1` [TGC0011427]: more than 25 µM; for `O=C(c1ccc(C(=O)N2CCOCC2)nc1)N1CCOCC1` [TGC0011426]: more than 50 µM; for `O=C(Nc1ccc(F)c(F)c1)c1ccc(C(=O)Nc2ccc(F)c(F)c2)nc1` [TGC0012289]: more than 50 µM.
In turn, `CCN(CC)c1ccc(NC(=O)c2ccc(C(=O)Nc3ccc(N(CC)CC)cc3)nc2)cc1` [TGC0011281] displayed a concentration for half-maximal inhibition (IC50) of more than 100 µM.
As to `COc1ccc(Cl)cc1NC(=O)c1ccc(C(=O)Nc2cc(Cl)ccc2OC)nc1` [TGC0011282], the concentration for half-maximal inhibition (IC50) is more than 100 µM.
For the molecule `COc1cccc(CCNC(=O)c2ccc(C(=O)NCCc3cccc(OC)c3)nc2)c1` [TGC0011446], the IC50 was more than 10 µM.
As to `COc1cc(C(=O)Nc2ccncc2)c(OC)cc1C(=O)Nc1ccncc1` [TGC0012291], the half-maximal inhibitory concentration (IC50) is more than 50 µM.
Then `Cc1cc(I)ccc1NC(=O)c1ccc(C(=O)Nc2ccc(I)cc2C)nc1` [TGC0011341], with more than 10 µM; and `O=C(O)c1cccc(NC(=O)c2ccc(C(=O)Nc3cccc(C(=O)O)c3)cc2)c1` [TGC0012297], with more than 100 µM; and `COc1cc(-c2ccc(NC(=O)c3cc(-c4ccc(C)o4)nc4ccccc34)c(OC)c2)ccc1NC(=O)c1cc(-c2ccc(C)o2)nc2ccccc12` [TGC0000161], with more than 50 µM.
Molecule `Cc1cc(NC(=O)c2ccc(C(=O)Nc3cc(C)on3)nc2)no1` [TG00011289] showed an IC50 of more than 50 µM.
The molecule `O=C(Nc1cc(C(F)(F)F)ccc1Cl)c1ccc(C(=O)Nc2cc(C(F)(F)F)ccc2Cl)nc1` [TGC0011278] showed an IC50 of more than 100 µM.
Turning to `COc1cccc(CCNC(=O)c2ccc(C(=O)NCCc3cccc(OC)c3OC)nc2)c1OC` [TGC0011456], the IC50 is more than 100 µM.
In turn, `O=C(NCCc1cccc(C(F)(F)F)c1)c1ccc(C(=O)NCCc2cccc(C(F)(F)F)c2)nc1` [TGC0011452] showed an IC50 of more than 10 µM.
`CC(C)(C)C(=O)Nc1ccc(C(=O)Nc2ccc(-c3cnc(-c4ccc(NC(=O)c5ccc(NC(=O)C(C)(C)C)cc5)cc4)nc3)cc2)cc1` [TGC0011534] gave an IC50 of more than 100 µM.
`O=C(NCc1ccc(F)cc1)c1ccc(C(=O)NCc2ccc(F)cc2)nc1` [TGC0011337] displayed a half-inhibitory concentration (IC50) of more than 10 µM.
The molecule `O=C(NCC1CCCO1)c1ccc(C(=O)NCC2CCCO2)nc1` (stereo not shown) [TGC0011424] gave a concentration for half-maximal inhibition (IC50) of more than 50 µM.
In turn, `O=C(Nc1ccc(-c2cnc(-c3ccc(NC(=O)c4ccccc4Cl)cc3)nc2)cc1)c1ccccc1Cl` [TGC0011530] displayed an IC50 of more than 10 µM.
The same measure for `COc1ccc(OC)c(CCNC(=O)c2ccc(C(=O)NCCc3cc(OC)ccc3OC)nc2)c1` [TGC0011457]: more than 100 µM; for `CC(=O)c1cccc(NC(=O)c2ccc(C(=O)Nc3cccc(C(C)=O)c3)nc2)c1` [TGC0011338]: more than 10 µM.
The same measure for `NC(=O)c1ccc(NC(=O)c2ccc(C(=O)Nc3ccc(C(N)=O)cc3)cc2)cc1` [TGC0012293]: more than 10 µM.
As for `CC(C)(C)C(=O)Nc1ccc(-c2cnc(-c3ccc(NC(=O)C(C)(C)C)cc3)nc2)cc1` [TGC0011525], the IC50 was more than 10 µM.
Molecule `O=C(NCCc1ccc(F)cc1)c1ccc(C(=O)NCCc2ccc(F)cc2)nc1` [TGC0011447] showed a concentration for half-maximal inhibition (IC50) of more than 50 µM.
With `N#Cc1ccccc1NC(=O)c1ccc(C(=O)Nc2ccccc2C#N)cc1` [TGC0012300], the half-inhibitory concentration (IC50) was more than 10 µM.
As to `O=C(NCCc1ccccn1)c1ccc(C(=O)NCCc2ccccn2)nc1` [TGC0011455], the concentration for half-maximal inhibition (IC50) is more than 100 µM.
Molecule `CC(=O)Nc1cccc(NC(=O)c2ccc(C(=O)Nc3cccc(NC(C)=O)c3)nc2)c1` [TGC0011279] displayed an IC50 of more than 100 µM.
Then `CC(C)(C)C(=O)Nc1cccc(C(=O)Nc2ccc(-c3cnc(-c4ccc(NC(=O)c5cccc(NC(=O)C(C)(C)C)c5)cc4)nc3)cc2)c1` [TGC0011527], with more than 10 µM; and `O=C(c1ccc(C(=O)N2CCCc3ccccc32)nc1)N1CCCc2ccccc21` [TGC0011425], with more than 25 µM.
